Data taken from patent US20210395239A1 (Hoffmann-La Roche Inc., priority 2018, published 2021).

Biological target: T1, human TLR7 (Homo sapiens, UniProt Q9NYK1)
T1 construct: host or cells: HEK293 (HEK-Blue hTLR7)
T1 sequence (Q9NYK1 27-1049): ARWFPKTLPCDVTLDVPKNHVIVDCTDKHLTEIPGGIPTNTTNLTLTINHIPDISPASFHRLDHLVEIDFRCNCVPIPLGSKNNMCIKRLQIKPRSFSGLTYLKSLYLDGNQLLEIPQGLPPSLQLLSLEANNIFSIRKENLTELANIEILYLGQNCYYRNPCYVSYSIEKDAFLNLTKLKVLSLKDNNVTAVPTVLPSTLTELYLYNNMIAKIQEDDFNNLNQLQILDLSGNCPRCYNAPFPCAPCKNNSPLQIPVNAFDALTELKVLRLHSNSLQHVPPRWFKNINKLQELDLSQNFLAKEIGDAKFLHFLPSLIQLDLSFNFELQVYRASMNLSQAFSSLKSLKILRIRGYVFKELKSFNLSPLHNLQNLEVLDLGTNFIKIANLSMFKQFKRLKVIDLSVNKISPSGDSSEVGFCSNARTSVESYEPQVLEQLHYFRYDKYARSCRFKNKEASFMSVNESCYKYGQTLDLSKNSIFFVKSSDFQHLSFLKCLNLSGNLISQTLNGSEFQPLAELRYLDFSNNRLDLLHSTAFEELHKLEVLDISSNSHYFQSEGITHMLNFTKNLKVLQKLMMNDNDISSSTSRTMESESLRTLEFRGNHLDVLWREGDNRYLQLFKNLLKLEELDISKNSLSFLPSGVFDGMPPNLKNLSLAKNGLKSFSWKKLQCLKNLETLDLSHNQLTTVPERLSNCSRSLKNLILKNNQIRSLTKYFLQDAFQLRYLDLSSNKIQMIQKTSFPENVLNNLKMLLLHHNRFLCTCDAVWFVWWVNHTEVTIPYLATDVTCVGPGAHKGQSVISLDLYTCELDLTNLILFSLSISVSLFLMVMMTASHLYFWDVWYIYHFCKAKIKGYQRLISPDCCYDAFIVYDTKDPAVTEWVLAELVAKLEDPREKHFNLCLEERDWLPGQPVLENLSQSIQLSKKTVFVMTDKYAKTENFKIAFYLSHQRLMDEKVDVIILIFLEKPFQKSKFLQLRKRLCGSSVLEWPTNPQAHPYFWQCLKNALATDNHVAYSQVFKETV
Assay: HEK293-Blue-hTLR-7 cells assay (SEAP reporter, R848 stimulation)
Format: cell-based
Settings: HEK293-Blue-hTLR7 cells, R848, 20 hrs; read-out: HEK/hTLR7 IC50
How it was run: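 HEK293-Blue-hTLR7 cells (NF-κB/AP-1-driven SEAP reporter) were stimulated with R848 alongside serially diluted compound at 1% final DMSO for 20 h at 37 °C. Supernatant SEAP was then developed with QUANTI-Blue for 2 h at 37 °C and absorbance read at 620–655 nm; antagonism is measured as reduced reporter signal.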

| SMILES | IC50 |
| --- | --- |
| C[C@@H]1CN(c2ccc(C#N)c3ncccc23)C[C@H](CN2CCN(c3cccc(C4CNCCO4)c3)CC2)O1 (stereo partly drawn) [Example 62, 5-[(2R,6S)-2-methyl-6-[[4-(3-morpholin-2-ylphenyl)piperazin-1-yl]methyl]-morpholin-4-yl]quinoline-8-carbonitrile] | 18 nM |
| Cc1cc(N2CCN(C[C@H]3CN(c4ccc(C#N)c5ncccc45)C[C@@H](C)O3)CC2)nc(N2CC(N)C(F)(F)C2)n1 (stereo partly drawn) [Example 63, 5-[(2S,6R)-2-[[4-[2-(4-amino-3,3-difluoro-pyrrolidin-1-yl)-6-methyl-pyrimidin-4-yl]piperazin-1-yl]methyl]-6-methyl-morpholin-4-yl]quinoline-8-carbonitrile] | 54 nM |
| Cc1cc(N2CCN(C[C@H]3CN(c4ccc(C#N)c5ncccc45)C[C@@H](C)O3)CC2)nc(N2CCNCC(O)C2)n1 (stereo partly drawn) [Example 66, 5-[(2S,6R)-2-[[4-[2-(6-hydroxy-1,4-diazepan-1-yl)-6-methyl-pyrimidin-4-yl]piperazin-1-yl]methyl]-6-methyl-morpholin-4-yl]quinoline-8-carbonitrile] | 17 nM |
| Cc1cc(N2CCN(C[C@H]3CN(c4ccc(C#N)n5ncc(F)c45)C[C@@H](C)O3)CC2)nc(N2CCNCC2)n1 [Example 67, 3-Fluoro-4-[(2R,6S)-2-methyl-6-[[4-(6-methyl-2-piperazin-1-yl-pyrimidin-4-yl)piperazin-1-yl]methyl]morpholin-4-yl]pyrazolo[1,5-a]pyridine-7-carbonitrile] | 24 nM |
| C[C@@H]1CN(c2ccc(C#N)n3ncc(F)c23)C[C@H](CN2CCN(c3ccc(N4C[C@H]5NCCO[C@@H]5C4)nc3)CC2)O1 [Example 168, 4-[(2S,6R)-2-[[4-[6-[(4aR,7aR)-3,4,4a,5,7,7a-hexahydro-2H-pyrrolo[3,4-b][1,4]oxazin-6-yl]-3-pyridyl]piperazin-1-yl]methyl]-6-methyl-morpholin-4-yl]-3-fluoro-pyrazolo[1,5-a]pyridine-7-carbonitrile] | 20 nM |
| C[C@@H]1CN(c2cc(=O)n(C)c3ncccc23)C[C@H](CN2CC(c3ccc(N4CCNCC4)cc3)C2)O1 [Example 171, 1-methyl-4-[(2R,6S)-2-methyl-6-[[3-(4-piperazin-1-ylphenyl)azetidin-1-yl]methyl]morpholin-4-yl]-1,8-naphthyridin-2-one] | 38 nM |
| C[C@@H]1CN(c2cc(=O)n(C)c3ncccc23)C[C@H](CN2CC(c3ccc(N4CC5(CNCCO5)C4)cc3)C2)O1 [Example 173, 1-methyl-4-[(2R,6S)-2-methyl-6-[[3-[4-(5-oxa-2,8-diazaspiro[3.5]nonan-2-yl)phenyl]azetidin-1-yl]methyl]morpholin-4-yl]-1,8-naphthyridin-2-one] | 29 nM |
| C[C@@H]1CN(c2cc(=O)n(C)c3ncccc23)C[C@H](CN2CC(c3ccc(N4CC(C)(N)C4)cc3)C2)O1 [Example 176, 4-[(2S,6R)-2-[[3-[4-(3-amino-3-methyl-azetidin-1-yl)phenyl]azetidin-1-yl]methyl]-6-methyl-morpholin-4-yl]-1-methyl-1,8-naphthyridin-2-one] | 36 nM |
| C[C@@H]1CN(c2ccc(C#N)n3ncc(F)c23)C[C@H](CN2CCN(c3ccc(N4CCOC5(CNC5)C4)nc3)CC2)O1 [Example 178, 3-fluoro-4-[(2R,6S)-2-methyl-6-[[4-[6-(5-oxa-2,8-diazaspiro[3.5]nonan-8-yl)-3-pyridyl]piperazin-1-yl]methyl]morpholin-4-yl]pyrazolo[1,5-a]pyridine-7-carbonitrile] | 38 nM |
| C[C@@H]1CN(c2ccc(C#N)n3ncc(F)c23)C[C@H](CN2CCN(c3ccc(N4CC5(CCN5)C4)nc3)CC2)O1 [Example 179, 4-[(2S,6R)-2-[[4-[6-(1,6-diazaspiro[3.3]heptan-6-yl)-3-pyridyl]piperazin-1-yl]methyl]-6-methyl-morpholin-4-yl]-3-fluoro-pyrazolo[1,5-a]pyridine-7-carbonitrile] | 30 nM |
| C[C@@H]1CN(c2cc(=O)n(C)c3ncccc23)C[C@H](CN2CC(c3ccc(N4CC5(CN(C)C5)C4)cc3)C2)O1 [Example 180, 1-methyl-4-[(2R,6S)-2-methyl-6-[[3-[4-(6-methyl-2,6-diazaspiro[3.3]heptan-2-yl)phenyl]azetidin-1-yl]methyl]morpholin-4-yl]-1,8-naphthyridin-2-one] | 53 nM |

The next molecules have a lower IC50 than those just listed; values first:

| IC50 | SMILES |
| --- | --- |
| 5 nM | Cc1cc(N2CCN(C[C@H]3CN(c4ccc(C#N)c5nccnc45)C[C@@H](C)O3)CC2)nc(N2CCNCC2)n1 [Example 64, 8-[(2R,6S)-2-methyl-6-[[4-(6-methyl-2-piperazin-1-yl-pyrimidin-4-yl)piperazin-1-yl]methyl]morpholin-4-yl]quinoxaline-5-carbonitrile] |
| 15 nM | Cc1cc(N2CCN(C[C@H]3CN(c4ccc(C(F)(F)F)c5nccnc45)C[C@@H](C)O3)CC2)nc(N2CCNCC2)n1 [Example 65, (2R,6S)-2-methyl-6-[[4-(6-methyl-2-piperazin-1-yl-pyrimidin-4-yl)piperazin-1-yl]methyl]-4-[8-(trifluoromethyl)quinoxalin-5-yl]morpholine] |
| 9 nM | Cc1cc(N2CCNCC2)nc(N2CCN(C[C@H]3CN(c4ccc(C#N)c5ncccc45)C[C@@H](C)O3)CC2)n1 [Example 68, 5-[(2R,6S)-2-methyl-6-[[4-(4-methyl-6-piperazin-1-yl-pyrimidin-2-yl)piperazin-1-yl]methyl]morpholin-4-yl]quinoline-8-carbonitrile] |
| 14 nM | C[C@@H]1CN(c2ccc(C#N)n3ncc(F)c23)C[C@H](CN2CCN(c3ccc(N[C@H]4CNC[C@H]4F)nc3)CC2)O1 [Example 167, 3-fluoro-4-[(2S,6R)-2-[[4-[6-[[(3S,4R)-4-fluoropyrrolidin-3-yl]amino]-3-pyridyl]piperazin-1-yl]methyl]-6-methyl-morpholin-4-yl]pyrazolo[1,5-a]pyridine-7-carbonitrile] |
| 9 nM | C[C@@H]1CN(c2ccc(C#N)n3ncc(F)c23)C[C@H](CN2CCN(c3ccc(N4CC5(CNCCO5)C4)nc3)CC2)O1 [Example 169, 3-fluoro-4-[(2R,6S)-2-methyl-6-[[4-[6-(5-oxa-2,8-diazaspiro[3.5]nonan-2-yl)-3-pyridyl]piperazin-1-yl]methyl]morpholin-4-yl]pyrazolo[1,5-a]pyridine-7-carbonitrile] |
| 6 nM | C[C@@H]1CN(c2ccc(C#N)n3ncc(F)c23)C[C@H](CN2CCN(c3ccc(N4CC5(CN(C)C5)C4)nc3)CC2)O1 [Example 170, 3-fluoro-4-[(2R,6S)-2-methyl-6-[[4-[6-(6-methyl-2,6-diazaspiro[3.3]heptan-2-yl)-3-pyridyl]piperazin-1-yl]methyl]morpholin-4-yl]pyrazolo[1,5-a]pyridine-7-carbonitrile] |
| 10 nM | C[C@@H]1CN(c2ccc(C#N)n3ncc(F)c23)C[C@H](CN2CCN(c3ccc(N4CC[C@@H](N)[C@H](F)C4)nc3)CC2)O1 [Example 175, 4-[(2S,6R)-2-[[4-[6-[(3R,4R)-4-amino-3-fluoro-1-piperidyl]-3-pyridyl]piperazin-1-yl]methyl]-6-methyl-morpholin-4-yl]-3-fluoro-pyrazolo[1,5-a]pyridine-7-carbonitrile] |
| 16 nM | C[C@@H]1CN(c2ccc(C#N)n3ncc(F)c23)C[C@H](CN2CCN(c3ccc([C@@H]4CNCCO4)cc3)CC2)O1 [Example 177, 3-fluoro-4-[(2R,6S)-2-methyl-6-[[4-[4-[(2R)-morpholin-2-yl]phenyl]piperazin-1-yl]methyl]morpholin-4-yl]pyrazolo[1,5-a]pyridine-7-carbonitrile] |
